# Data reported in patent US7582649B2, “Hydroxy alkyl substituted 1,3,8-triazaspiro[4.5]decan-4-one derivatives useful for the treatment of ORL-1 receptor mediated disorders” (Janssen Pharmaceutica, NV, priority 2002, dated 2009).
# Values joined by “and” are separate entries in the source; they are usually repeats but may differ in a detail not shown here. Identical values can stand only once. Like-named read-outs stand apart in the source and are kept apart here.
# How the values were obtained:
# [1] = test system: Long-Evans Hooded rats; assay: Plasma stress hormone levels (ACTH, corticosterone, glucose) after SIH; format: in vivo, rat; conditions: p.o.
# Procedure: (§1) Male Long-Evans Hooded rats weighing 180 to 200 grams at the time of purchase were obtained from Charles River Laboratories (Raleigh, N.C.). Upon arrival, the animals were group housed four per cage in quarantine for 5 days in wire-mesh cages at an ambient temperature of 21 to 23° C. with an automated 12/12 hour light/dark cycle and ad libitum access to water and a commercial rodent chow. The rats were then transferred to a general housing room for a one-week acclimation with housing and environmental conditions, and 12/12 hour light/dark cycle conditions. Animals were fasted overnight (18 hours) prior to experiment.
# On the day of experiment, group-housed (4/group) Long-Evans Hooded rats were divided into various treatment groups (N=8 to 32) and test compound at 0.03-3.0 mg/kg or vehicle was administered orally (p.o.) by gavage in a dose volume equivalent to 5 mL/kg. One hour after dosing, baseline rectal temperatures were recorded for each rat. Rats were then immediately isolated in shoebox cages with ALPHA-DRY bedding. Rectal temperatures were then recorded at 15 min, 30 min, and 45 min after isolation (i.e., 1 hr 15 min, 1 hr 30 min, and 1 hr 45 minutes after test compound or vehicle administration). All experiments were conducted during the light cycle. […]
# [2] = molecular target: kappa opioid receptor (Homo sapiens, UniProt P41145); assay: Filtration binding assay: kappa opioid receptor
# Sequence of kappa opioid receptor (P41145 whole entry): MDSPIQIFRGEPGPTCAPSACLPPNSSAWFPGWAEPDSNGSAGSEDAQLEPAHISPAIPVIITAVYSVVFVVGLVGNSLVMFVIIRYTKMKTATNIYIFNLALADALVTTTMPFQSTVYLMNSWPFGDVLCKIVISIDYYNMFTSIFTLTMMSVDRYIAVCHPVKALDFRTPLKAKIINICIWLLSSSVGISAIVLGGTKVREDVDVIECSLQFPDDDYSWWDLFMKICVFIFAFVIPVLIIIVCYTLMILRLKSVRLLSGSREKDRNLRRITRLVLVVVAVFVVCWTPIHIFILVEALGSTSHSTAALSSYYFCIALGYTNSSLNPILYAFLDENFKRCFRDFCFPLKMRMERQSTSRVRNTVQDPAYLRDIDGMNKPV
# [3] = test system: Long-Evans Hooded rats; conditions: rat, in vivo, po; for Total Entries (EPM), % Change / Total Entries (EPM), Mean: male, Long-Evans Hooded
# [4] = test system: Long-Evans Hooded rats; conditions: male, rat, in vivo, po
# [5] = test system: Long-Evans Hooded rats; assay: Stress induced hyperthermia (SIH) in vivo assay, rectal temperature; design: species or system rat
# Procedure: as §1
# […] One hour after dosing, baseline rectal temperatures were recorded for each rat. Rats were then immediately isolated in shoebox cages with ALPHA-DRY bedding. Rectal temperatures were then recorded at 15 min, 30 min, and 45 min after isolation (i.e., 1 hr 15 min, 1 hr 30 min, and 1 hr 45 minutes after test compound or vehicle administration). All experiments were conducted during the light cycle. After completion of the behavioral portion of the study, each animal was killed via decapitation using a guillotine and trunk blood was collected in 5 mL vacutainer tube containing EDTA and placed on ice. The samples were then centrifuged at 3800 RPM for 10 minutes and plasma was removed and placed on dry ice in an Eppendorff sample tube. Plasma samples were stored at −80° C. and later used for determining ACTH, corticosterone, and glucose levels. Plasma samples were outsourced to Anilytics, Inc. for determination of plasma levels of ACTH, coricosterone, and glucose. A Mann-Whitney U t-test (one-tailed) was used for statistical analysis of behavioral data and an unpaired t-test (one-tailed) was used for analysis of plasma ACTH, corticosterone, and glucose levels.
# Compound #438 was suspended in an aqueous vehicle comprised of 0.5% (w/v) methylcellulose (15 centipoises) solution.
# [6] = molecular target: mu opioid receptor (Homo sapiens, UniProt P35372); assay: Filtration binding assay: mu opioid receptor
# Sequence of mu opioid receptor (P35372 whole entry): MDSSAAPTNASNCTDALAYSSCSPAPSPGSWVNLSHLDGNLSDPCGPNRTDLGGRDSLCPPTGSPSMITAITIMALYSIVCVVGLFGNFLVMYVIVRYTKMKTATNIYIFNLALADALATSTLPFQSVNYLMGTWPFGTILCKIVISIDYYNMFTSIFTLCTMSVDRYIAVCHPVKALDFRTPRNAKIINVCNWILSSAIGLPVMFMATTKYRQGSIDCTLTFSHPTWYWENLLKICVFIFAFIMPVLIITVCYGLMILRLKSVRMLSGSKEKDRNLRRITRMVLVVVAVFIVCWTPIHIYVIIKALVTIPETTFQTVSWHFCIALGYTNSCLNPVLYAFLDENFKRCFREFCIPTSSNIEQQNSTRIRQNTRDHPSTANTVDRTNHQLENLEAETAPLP
compound,measurement,setting,value
"Cc1cccc2cccc(CN3CCC4(CC3)C(=O)N(C[C@H](O)CN)CN4c3ccc(F)cc3)c12 [Compound #438, 3-(3-Amino-2-(R)-hydroxy-propyl)-1-(4-fluoro-phenyl)-8-(8-methyl-naphthalen-1-ylmethyl)-1,3,8-triaza-spiro[4.5]decan-4-one]",changes in the plasma levels of corticosterone,[1],not statistically significant
same,reduction in plasma ACTH levels,"[1]; 0.3 mg/kg, P=0.0170",25%
same,IC50,[2],> 10 µM
same,"Total Entries (EPM), % Change",[3]; 0.03 mg/kg,1.0%
same,"Total Entries (EPM), Mean",[3]; 0.03 mg/kg,102.0
same,"Total Entries (EPM), % Change",[3]; 10 mg/kg,−6.4%
same,"Total Entries (EPM), Mean",[3]; 10 mg/kg,94.5
same,"Total Entries (EPM), % Change",[3]; 30 mg/kg,−14.6%
same,"Total Entries (EPM), Mean",[3]; 30 mg/kg,86.3
same,"% Open Arm Entries (EPM), % Change",[3]; 0.03 mg/kg,−11.1%
same,"% Open Arm Entries (EPM), Mean",[3]; 0.03 mg/kg,5.14%
same,"% Open Arm Time (EPM), % Change",[3]; 0.03 mg/kg,−18.8%
same,"% Open Arm Time (EPM), Mean",[3]; 0.03 mg/kg,6.67%
same,"% Open Arm Entries (EPM), % Change",[3]; 0.1 mg/kg,34.4% and 40.4%
same,"% Open Arm Entries (EPM), Mean",[3]; 0.1 mg/kg,7.77% and 9.17%
same,"% Open Arm Time (EPM), Mean",[3]; 0.1 mg/kg,12.1% and 17.2%
same,"% Open Arm Entries (EPM), % Change",[3]; 0.3 mg/kg,54.8% and 80.7%
same,"% Open Arm Entries (EPM), Mean",[3]; 0.3 mg/kg,8.95% and 11.8%
same,"% Open Arm Time (EPM), Mean",[3]; 0.3 mg/kg,13.8% and 21.8%
same,"% Open Arm Entries (EPM), % Change",[3]; 1 mg/kg,72.1% and 46.6%
same,"% Open Arm Entries (EPM), Mean",[3]; 1 mg/kg,9.95% and 9.57%
same,"% Open Arm Time (EPM), % Change",[3]; 1 mg/kg,80.3% and 89.7%
same,"% Open Arm Time (EPM), Mean",[3]; 1 mg/kg,14.8% and 15.1%
same,"% Open Arm Entries (EPM), % Change",[3]; 3 mg/kg,44.3% and 37.8%
same,"% Open Arm Entries (EPM), Mean",[3]; 3 mg/kg,8.34% and 9.0%
same,"% Open Arm Time (EPM), Mean",[3]; 3 mg/kg,12.4% and 16.9%
same,"% Open Arm Entries (EPM), % Change",[3]; 10 mg/kg,11.1%
same,"% Open Arm Entries (EPM), Mean",[3]; 10 mg/kg,6.4%
same,"% Open Arm Time (EPM), % Change",[3]; 10 mg/kg,0.9%
same,"% Open Arm Time (EPM), Mean",[3]; 10 mg/kg,8.14%
same,"% Open Arm Entries (EPM), % Change",[3]; 30 mg/kg,15.1%
same,"% Open Arm Entries (EPM), Mean",[3]; 30 mg/kg,6.65%
same,"% Open Arm Time (EPM), % Change",[3]; 30 mg/kg,−60.9%
same,"% Open Arm Time (EPM), Mean",[3]; 30 mg/kg,3.21%
same,"Horizontal Activity (SMA), % Change",[4]; 0.03 mg/kg,9.9%
same,"Horizontal Activity (SMA), Mean",[4]; 0.03 mg/kg,3565
same,"Vertical Movement (SMA), % Change",[4]; 0.03 mg/kg,12.5%
same,"Vertical Movement (SMA), Mean",[4]; 0.03 mg/kg,54.8
same,"Horizontal Activity (SMA), % Change",[4]; 10 mg/kg,−4.0%
same,"Horizontal Activity (SMA), Mean",[4]; 10 mg/kg,3115
same,"Vertical Movement (SMA), % Change",[4]; 10 mg/kg,11.9%
same,"Vertical Movement (SMA), Mean",[4]; 10 mg/kg,54.5
same,"Horizontal Activity (SMA), % Change",[4]; 30 mg/kg,−15.8%
same,"Horizontal Activity (SMA), Mean",[4]; 30 mg/kg,2730
same,"Vertical Movement (SMA), % Change",[4]; 30 mg/kg,−7.0%
same,"Vertical Movement (SMA), Mean",[4]; 30 mg/kg,45.3
same,"Rectal Temp., Mean","[5]; 0.03 mg/kg p.o., 0 (Basal), 1 hr after dosing",37.5 °C
same,"Rectal Temp., Mean","[5]; 0.03 mg/kg p.o., 15 min after isolation",38.7 °C
same,"Rectal Temp., Mean","[5]; 0.03 mg/kg p.o., 30 min after isolation",38.6 °C
same,"Rectal Temp., Mean","[5]; 0.03 mg/kg p.o., 45 min after isolation",38.4 °C
same,"Rectal Temp., Mean","[5]; 0.1 mg/kg p.o., 0 (Basal), 1 hr after dosing",37.2 °C
same,"Rectal Temp., Mean","[5]; 0.1 mg/kg p.o., 15 min after isolation",38.4 °C
same,"Rectal Temp., Mean","[5]; 0.1 mg/kg p.o., 30 min after isolation",38.5 °C
same,"Rectal Temp., Mean","[5]; 0.1 mg/kg p.o., 45 min after isolation",38.5 °C
same,"Rectal Temp., Mean","[5]; 0.3 mg/kg p.o., 0 (Basal), 1 hr after dosing",37.4 °C
same,"Rectal Temp., Mean","[5]; 0.3 mg/kg p.o., 15 min after isolation",38.4 °C
same,"Rectal Temp., Mean","[5]; 0.3 mg/kg p.o., 30 min after isolation",38.5 °C
same,"Rectal Temp., Mean","[5]; 0.3 mg/kg p.o., 45 min after isolation",38.3 °C
same,"Rectal Temp., Mean","[5]; 1.0 mg/kg p.o., 0 (Basal), 1 hr after dosing",37.1 °C
same,"Rectal Temp., Mean","[5]; 1.0 mg/kg p.o., 15 min after isolation",38.4 °C
same,"Rectal Temp., Mean","[5]; 1.0 mg/kg p.o., 30 min after isolation",38.5 °C
same,"Rectal Temp., Mean","[5]; 1.0 mg/kg p.o., 45 min after isolation",38.2 °C
same,"Rectal Temp., Mean","[5]; 3.0 mg/kg p.o., 0 (Basal), 1 hr after dosing",37.0 °C
same,"Rectal Temp., Mean","[5]; 3.0 mg/kg p.o., 15 min after isolation",38.2 °C
same,"Rectal Temp., Mean","[5]; 3.0 mg/kg p.o., 30 min after isolation",38.4 °C
same,"Rectal Temp., Mean","[5]; 3.0 mg/kg p.o., 45 min after isolation",38.2 °C
same,rectal temperature in the SIH model,"[5]; p.o., at 0.03 mg/kg, 0.01 mg/kg, 0.3 mg/kg, 1.0 mg/kg and 3.0 mg/kg",attenuation of rectal temperature
same,IC50,[6],> 10 µM
